Assay results as given in ChEMBL document CHEMBL4765241, “Identification and Preclinical Pharmacology of ((1 R,3 S)-1-Amino-3-(( S)-6-(2-methoxyphenethyl)-5,6,7,8-tetrahydronaphthalen-2-yl)cyclopentyl)methanol (BMS-986166): A Differentiated Sphingosine-1-phosphate Receptor 1 (S1P) Modulator Advanced into Clinical Trials” (J Med Chem, 2019).
The source made the active and inactive calls. The rule behind the calls is not given here.

Assays:
[1] = Genotoxicity in bacteria by Ames test; format: toxicity
[2] = test system: Mus musculus; test: Antiarthritic activity in DBA/1 mouse model of collagen-induced arthritis assessed as reduction in clinical score administered orally once daily as single dose for 21 days; format: functional, organism-based; conditions: time 21.0 day
[3] = Metabolic stability in cynomolgus monkey liver microsomes assessed as half-life; format: ADME, Macaca fascicularis, Microsome
[4] = biological target: Cytochrome P450 2C19 (Homo sapiens, UniProt P33261); test: Inhibition of CYP2C19 (unknown origin); format: ADME
[5] = test system: Mus musculus; test: Immunosuppressive activity in MOG (35 to 55 residues)/pertussis toxin-induced experimental autoimmune encephalomyelitis C57BL/6 mouse model assessed as reduction in EAE clinical scores at 0.1 to 0.5 mg/kg, po QD starting from day 1 post immunization and observed at day 12 until day 24 relative to control; format: functional, organism-based; conditions: dose 0.1-0.5 mg/kg
[6] = Protein binding in rat assessed as bound fraction; format: ADME; conditions: read-out: PB
[7] = Terminal half-life in beagle dog at 1 mg/kg, iv; format: ADME, organism-based, Canis lupus familiaris; conditions: in vivo, read-out: beta t1/2 (converted)
[8] = Protein binding in dog assessed as bound fraction; format: ADME, Canis lupus familiaris; conditions: read-out: PB
[9] = test system: Rattus norvegicus; test: Reduction in circulating lymphocytes in Lewis rat blood at 2 mg/kg, po measured at 24 hrs by hematology analyzer based analysis; format: functional; design: scale not given: the % may be the effect or the level left
[10] = test system: Mus musculus; test: Antiarthritic activity in DBA/1 mouse model of collagen-induced arthritis assessed as reduction in paw histological score at 0.1 mg/kg, po QD administered as single dose for 21 days; format: functional; design: scale not given: the % may be the effect or the level left; conditions: time 21 day
[11] = Protein binding in human assessed as bound fraction; format: ADME; conditions: read-out: PB
[12] = Terminal half-life in cynomolgus monkey at 1 mg/kg, iv; format: ADME, organism-based, Macaca fascicularis; conditions: in vivo, read-out: beta t1/2 (converted)
[13] = AUC ratio in orally dosed Beagle dog blood assessed as phosphate metabolite to parent compound; format: ADME, organism-based, Canis lupus familiaris; conditions: in vivo, po
[14] = Oral bioavailability in cynomolgus monkey at 1 mg/kg; format: ADME, organism-based, Macaca fascicularis; conditions: in vivo
[15] = Drug metabolism in Lewis rat blood assessed as concentration of parent compound at 2 mg/kg, po measured at 4 hrs by LC-MS/MS analysis; format: ADME, organism-based; conditions: read-out: Ct
[16] = biological target: T1, Cytochrome P450 1A2 (Homo sapiens, UniProt P05177); test: Inhibition of CYP1A2 (unknown origin); format: ADME
T1 sequence (P05177 whole entry): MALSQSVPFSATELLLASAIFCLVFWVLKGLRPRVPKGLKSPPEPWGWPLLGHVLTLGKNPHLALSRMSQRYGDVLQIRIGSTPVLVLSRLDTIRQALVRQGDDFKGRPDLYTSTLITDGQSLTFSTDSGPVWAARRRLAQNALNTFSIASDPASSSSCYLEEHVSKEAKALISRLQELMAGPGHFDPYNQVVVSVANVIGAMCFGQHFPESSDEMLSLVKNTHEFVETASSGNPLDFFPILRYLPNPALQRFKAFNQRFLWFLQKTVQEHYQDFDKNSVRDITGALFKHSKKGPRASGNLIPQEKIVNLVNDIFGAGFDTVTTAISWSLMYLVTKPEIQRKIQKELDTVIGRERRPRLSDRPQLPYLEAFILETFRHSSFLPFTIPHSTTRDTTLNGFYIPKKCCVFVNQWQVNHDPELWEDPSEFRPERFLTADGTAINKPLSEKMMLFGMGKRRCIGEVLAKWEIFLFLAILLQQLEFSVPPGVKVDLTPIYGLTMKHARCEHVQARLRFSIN

[17] = Clearance in Beagle dog at 1 mg/kg, iv; format: ADME, organism-based, Canis lupus familiaris; conditions: in vivo
[18] = AUC ratio in orally dosed cynomolgus monkey blood assessed as phosphate metabolite to parent compound; format: ADME, organism-based, Macaca fascicularis; conditions: in vivo, po
[19] = test system: Mus musculus; test: Antiarthritic activity in DBA/1 mouse model of collagen-induced arthritis assessed as maximum efficacy causing reduction in paw histological score administered orally once daily as single dose for 21 days; format: functional; conditions: time 21 day
[20] = Tmax in cynomolgus monkey at 1 mg/kg, po or 1 mg/kg, iv; format: ADME, organism-based, Macaca fascicularis; conditions: in vivo
[21] = test system: Rattus norvegicus; test: Reduction in circulating lymphocytes in Lewis rat blood assessed as effective dose after oral dosing measured at 24 hrs by hematology analyzer based analysis; format: functional
[22] = Distribution coefficient, log D of compound at pH 6.5; format: physicochemical; conditions: octanol/water
[23] = biological target: Cytochrome P450 2D6 (Homo sapiens, UniProt P10635); test: Inhibition of CYP2D6 (unknown origin); format: ADME
Chain of Cytochrome P450 2D6 (P10635 whole entry): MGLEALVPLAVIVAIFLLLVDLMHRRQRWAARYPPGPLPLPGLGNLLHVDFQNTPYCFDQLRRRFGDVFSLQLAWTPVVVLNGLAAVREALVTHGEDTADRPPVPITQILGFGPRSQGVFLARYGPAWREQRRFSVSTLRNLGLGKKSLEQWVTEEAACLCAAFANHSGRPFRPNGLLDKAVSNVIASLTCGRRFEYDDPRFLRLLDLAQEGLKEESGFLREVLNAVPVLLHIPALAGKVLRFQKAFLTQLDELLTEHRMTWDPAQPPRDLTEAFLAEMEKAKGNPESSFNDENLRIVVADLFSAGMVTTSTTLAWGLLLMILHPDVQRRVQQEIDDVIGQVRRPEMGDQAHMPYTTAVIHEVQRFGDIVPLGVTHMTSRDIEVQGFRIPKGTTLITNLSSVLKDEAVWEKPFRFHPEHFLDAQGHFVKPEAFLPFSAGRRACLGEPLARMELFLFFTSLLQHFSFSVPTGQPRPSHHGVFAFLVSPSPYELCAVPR

Chain of Cytochrome P450 2C19 (P33261 whole entry, the tested form may be a part): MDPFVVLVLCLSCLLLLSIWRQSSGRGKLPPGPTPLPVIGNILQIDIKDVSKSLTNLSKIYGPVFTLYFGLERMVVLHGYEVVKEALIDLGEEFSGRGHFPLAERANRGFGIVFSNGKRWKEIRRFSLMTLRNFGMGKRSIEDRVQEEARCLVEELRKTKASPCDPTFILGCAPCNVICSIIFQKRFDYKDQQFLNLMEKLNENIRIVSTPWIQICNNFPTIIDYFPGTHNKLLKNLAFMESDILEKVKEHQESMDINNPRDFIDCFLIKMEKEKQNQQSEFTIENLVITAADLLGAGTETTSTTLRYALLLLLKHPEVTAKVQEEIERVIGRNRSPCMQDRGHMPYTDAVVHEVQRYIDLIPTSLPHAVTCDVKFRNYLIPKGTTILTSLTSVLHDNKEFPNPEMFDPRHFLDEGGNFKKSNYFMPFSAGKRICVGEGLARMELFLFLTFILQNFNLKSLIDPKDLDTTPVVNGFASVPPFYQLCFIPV

COc1ccccc1CC[C@@H]1CCc2cc([C@H]3CC[C@](N)(CO)C3)ccc2C1 [UDIFITIMOD]
Activity [1]: Non-Toxic | Activity [2]: Active | half-life [3]: 1.83 h | IC50 [4]: 6.9 µM | Activity [5]: Active | fraction unbound [6]: < 0.001 | half-life [7]: 165 h | fraction unbound [8]: < 0.001 | Activity [9]: 81% | Activity [10]: 41% | fraction unbound [11]: < 0.001 | half-life [12]: 46 h | Ratio AUC [13]: 3.1 | bioavailability [14]: 76% | concentration at 4 h [15]: 0.04 µM | IC50 [16]: > 20 µM | clearance [17]: 0.114 L/h/kg | Ratio AUC [18]: 1 | Emax [19]: 0.5 mg/kg/day | Tmax [20]: 6 h | ED50 [21]: 0.1 mg/kg | logD [22]: 5.05 | IC50 [23]: 18 µM
